Columns and labels:
[1] = molecular target: T1, CydDC (Escherichia coli, UniProt P23886+P29018); assay: single-particle cryo-EM structure; format: binding; conditions: IFasym apo state, active turnover
T1 construct: gene cydC; full-length heterodimer, C-terminal His6 on CydC, from pTTQ18 (pcydDC) in E. coli BL21 pLysS (DE3); purified in DDM (ATPase assays) or LMNG (cryo-EM)

[2] = tested on: Nc1ncnc2c1ncn2[C@@H]1O[C@H](COP(=O)(O)OP(=O)(O)OP(=O)(O)O)[C@@H](O)[C@H]1O; assay: purified protein; conditions: 0.3 µM heme, 3 mM MgCl2, pH 7.0, 37 °C, 0.02% DDM
[3] = molecular target: T2, CydDC (Escherichia coli, UniProt P23886+P29018, P23886:E500Q); assay: single-particle cryo-EM structure; conditions: Occ return apo state; both nucleotide-binding sites; turnover dataset with heme, ATP and Mg2+
T2 construct: gene cydC; full-length heterodimer, C-terminal His6 on CydC, from pTTQ18 (pcydDC) in E. coli BL21 pLysS (DE3); purified in DDM (ATPase assays) or LMNG (cryo-EM)
T2 sequence (P23886 whole entry E500Q): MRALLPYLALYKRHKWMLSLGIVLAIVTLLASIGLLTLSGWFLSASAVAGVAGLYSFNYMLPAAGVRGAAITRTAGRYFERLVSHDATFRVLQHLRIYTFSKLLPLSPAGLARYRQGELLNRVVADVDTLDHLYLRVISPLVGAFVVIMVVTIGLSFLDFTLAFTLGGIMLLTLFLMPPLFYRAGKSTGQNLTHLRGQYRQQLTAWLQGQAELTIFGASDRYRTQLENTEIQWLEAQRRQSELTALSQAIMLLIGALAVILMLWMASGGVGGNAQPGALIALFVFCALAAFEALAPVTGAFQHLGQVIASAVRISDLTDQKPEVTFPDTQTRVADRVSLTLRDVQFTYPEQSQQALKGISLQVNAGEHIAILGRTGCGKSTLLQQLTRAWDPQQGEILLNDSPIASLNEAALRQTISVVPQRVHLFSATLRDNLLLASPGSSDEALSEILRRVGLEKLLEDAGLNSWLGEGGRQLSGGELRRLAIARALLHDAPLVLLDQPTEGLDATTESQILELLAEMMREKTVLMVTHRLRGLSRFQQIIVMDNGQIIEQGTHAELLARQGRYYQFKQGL
T2 sequence (P29018 whole entry): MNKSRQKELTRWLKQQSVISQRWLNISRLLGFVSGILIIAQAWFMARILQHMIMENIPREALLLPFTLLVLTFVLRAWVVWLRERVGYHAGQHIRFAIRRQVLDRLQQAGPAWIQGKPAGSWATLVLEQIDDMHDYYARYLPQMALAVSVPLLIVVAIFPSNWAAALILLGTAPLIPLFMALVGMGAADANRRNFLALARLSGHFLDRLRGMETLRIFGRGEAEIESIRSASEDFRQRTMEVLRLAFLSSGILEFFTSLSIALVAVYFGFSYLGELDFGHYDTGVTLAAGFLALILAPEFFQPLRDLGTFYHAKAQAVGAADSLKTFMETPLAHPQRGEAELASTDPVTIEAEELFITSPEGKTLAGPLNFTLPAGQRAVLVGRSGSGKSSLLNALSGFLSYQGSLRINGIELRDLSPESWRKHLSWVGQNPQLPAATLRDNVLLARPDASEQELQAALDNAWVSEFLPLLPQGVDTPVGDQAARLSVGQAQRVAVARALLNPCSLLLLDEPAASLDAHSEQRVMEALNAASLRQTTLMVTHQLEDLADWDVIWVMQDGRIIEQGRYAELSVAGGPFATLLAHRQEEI

T1 sequence (P23886 whole entry): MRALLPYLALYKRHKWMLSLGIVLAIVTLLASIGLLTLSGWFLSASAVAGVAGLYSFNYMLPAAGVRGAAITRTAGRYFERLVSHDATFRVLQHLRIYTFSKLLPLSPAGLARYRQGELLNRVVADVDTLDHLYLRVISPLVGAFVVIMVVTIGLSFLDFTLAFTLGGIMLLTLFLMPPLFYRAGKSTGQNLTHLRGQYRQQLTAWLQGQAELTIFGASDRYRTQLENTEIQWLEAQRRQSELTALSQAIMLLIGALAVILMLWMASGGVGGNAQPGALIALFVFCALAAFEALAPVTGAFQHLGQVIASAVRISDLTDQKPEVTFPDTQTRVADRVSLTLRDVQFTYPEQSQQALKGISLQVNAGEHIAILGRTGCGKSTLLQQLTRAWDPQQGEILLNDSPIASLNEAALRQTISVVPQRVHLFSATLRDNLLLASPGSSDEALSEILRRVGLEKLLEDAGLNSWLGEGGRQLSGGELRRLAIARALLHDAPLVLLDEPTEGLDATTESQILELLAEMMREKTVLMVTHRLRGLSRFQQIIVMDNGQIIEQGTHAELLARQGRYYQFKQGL
T1 sequence (P29018 whole entry): as the sequence (P29018 whole entry) above

Nc1ncnc2c1ncn2[C@@H]1O[C@H](COP(=O)(O)OP(=O)(O)O)[C@@H](O)[C@H]1O [ADP]
single-particle cryo-EM structure ([1]; site NBS of CydC, with Pi): obtained from the turnover dataset of CydDC to ADP and Pi

CydDC (Escherichia coli K-12)
Km [2]: 91.9 ± 9.7 µM

Nc1ncnc2c1ncn2[C@@H]1O[C@H](COP(=O)(O)OP(=O)(O)OP(=O)(O)O)[C@@H](O)[C@H]1O [ATP]
single-particle cryo-EM structure [3]: The left panel shows a close-up view of ATP bound to NBS^D
single-particle cryo-EM structure ([1]; degenerate site NBS of CydD): NBS^D conformations in the Occreturnapo (ATP), IFasymapo (ATP)

Source: paper PMC10374445 (Nature Chemical Biology, 2023)
